Test results taken from patent US20210187106A1, “COMBINATION OF LIF INHIBITORS AND PLATINUM-BASED ANTINEOPLASTIC AGENTS FOR USE IN TREATING CANCER” (MEDIMMUNE LIMITED, priority 2018, published 2021).
Several values for one entry are separate records, joined by “and”; a condition that tells them apart may be missing. Equal values may be shown once. Entries after “also recorded” stand apart in the source; their conditions may differ.

Tests used:
[1] = test system: CT26 tumors; experiment: Subcutaneous implanted CT26 model, h5D8 combined with cisplatin, doxorubicin or paclitaxel; assay type: in vivo, mouse; conditions: individual BALB/c mice, h5D8 15 mg/kg twice a week, cisplatin 10 mg/kg once a week, paclitaxel 15 mg/kg twice a week, doxorubicin 4 mg/kg once a week
[2] = test system: LIF-induced STAT3 phosphorylation in U251 glioma cells; experiment: Inhibition of LIF-induced STAT3 phosphorylation (Tyr705) by western blot, 5D8 humanization panel; assay type: cell-based, human; conditions: serum starved, antibody 10 μg/ml over night
Method: One clone from the rat immunization (5D8) was chosen for subsequent humanization. Humanization was conducted using standard CDR grafting methods. The heavy chain and light chain regions were cloned from the 5D8 hybridoma using standard molecular cloning techniques and sequenced by the Sanger method. A BLAST search was then conducted against human heavy chain and light chain variable sequences and 4 sequences from each were chosen as acceptor frameworks for humanization. These acceptor frameworks were deimmunized to remove T cell response epitopes. The heavy chain and light chain CDR1, CDR2 and CDR3 of 5D8 were cloned into the 4 different heavy chain acceptor frameworks (H1 to H4), and 4 different light chain frameworks (L1 to L4). Then all 16 different antibodies were tested for: expression in CHO-S cells (Selexis); inhibition of LIF-induced STAT3 phosphorylation; and binding affinity by Surface Plasmon Resonance (SPR). These experiments are summarized in
Inhibition of LIF-induced STAT3 phosphorylation at tyrosine 705 was determined by western blot. […] After treatment, proteins were obtained in radio-immunoprecipitation assay (RIPA) lysis buffer containing phosphatase and protease inhibitors, quantified (BCA-protein assay, Thermo Fisher Scientific) and used in western blot. […] Proteins were detected by chemiluminescence (SuperSignal Substrate, catalog #34076, Thermo Fisher Scientific). […]

[3] = test system: STAT3 phosphorylation (Tyr 705) in U251 glioma cells; experiment: Inhibition of STAT3 phosphorylation in glioma cell culture model of LIF activation, western blot; assay type: cell-based, human; conditions: 10 μg/ml over night, FIG. 2A
Method: U251 glioma cells were plated in 6-well plates at a density of 150,000 cells/well. Cells were cultured in complete medium for 24 hours before any treatment.
After treatment, proteins were obtained in radio-immunoprecipitation assay (RIPA) lysis buffer containing phosphatase and protease inhibitors, quantified (BCA-protein assay, Thermo Fisher Scientific) and used in western blot. For western blot, membranes were blocked for 1 hour in 5% non-fatty milk—TBST and incubated with the primary antibody overnight (p-STAT3, catalog #9145, Cell Signaling or STAT3, catalog #9132, Cell Signaling) or 30 minutes (β-actin-peroxidase, catalog #A3854, Sigma-Aldrich). Membranes were then washed with TBST, incubated with secondary antibody if necessary, and washed again. Proteins were detected by chemiluminescence (SuperSignal Substrate, catalog #34076, Thermo Fisher Scientific).

[4] = test system: KLN205 non-small cell lung cancer (NSCLC) cells; experiment: Orthotopic syngeneic mouse model of non-small cell lung carcinoma (KLN205); assay type: in vivo; conditions: DBA/2 mice, 15 mg/kg or 30 mg/kg intraperitoneally twice a week, versus vehicle
Method: To determine the ability of the humanized 5D8 clone to inhibit a LIF positive cancer in vivo this antibody was tested in a mouse model of non-small cell lung carcinoma (NSCLC).
The murine non-small cell lung cancer (NSCLC) cell line KLN205 with high LIF levels was stably infected with lentivirus expressing the firefly luciferase gene for in vivo bioluminescence monitoring. To develop the mouse model, 5×10^5KLN205 non-small cell lung cancer (NSCLC) cells were orthotopically implanted into the left lung of 8-week-old immunocompetent syngeneic DBA/2 mice by intercostal puncture. […] For the bioluminescence imaging, mice received an intraperitoneal injection of 0.2 mL of 15 mg/mL D-luciferin under 1-2% inhaled isoflurane anesthesia. The bioluminescence signals were monitored using the IVIS system 2000 series (Xenogen Corp., Alameda, Calif., USA) consisting of a highly sensitive cooled CCD camera. Living Image software (Xenogen Corp.) was used to grid the imaging data and integrate the total bioluminescence signals in each boxed region. Data were analyzed using the total photon flux emission (photons/second) in the regions of interest (ROI). […] Data are presented as mean±SEM.

[5] = test system: human U251 GBM cells; experiment: Orthotopic GBM tumor model with luciferase expressing U251 cells in mice; assay type: in vivo; conditions: 200 μg or 300 μg twice a week, FIG. 7B
Method: Results of this study are shown in FIG. 7A (quantitation at day 26 post treatment). […] Tumor size was determined by bioluminescence (Xenogen IVIS Spectrum) on day 7. […] Statistical significance was calculated using the unpaired non-parametric Mann-Whitney U-test.
U251 cells stably expressing luciferase were harvested, washed in PBS, centrifuged at 400 g for 5 min, resuspended in PBS and counted with an automated cell counter (Countess, Invitrogen). Cells were kept on ice to maintain optimal viability. Mice were anaesthetized with intraperitoneal administration of Ketamine (Ketolar50®)/Xylacine (Rompún®) (75 mg/kg and 10 mg/kg respectively). Each mouse was carefully placed in the stereotactic device and immobilized. […]
Body weight and tumor volume: Body weight was measured 2 times/week and tumor growth was quantified by bioluminescence on day 7 (Xenogen IVIS Spectrum). To quantify bioluminescence activity in vivo, mice were anaesthetized using isofluorane, and injected intraperitoneally with luciferin substrate (PerkinElmer) ([…]).
Tumor size as determined by bioluminescence (Xenogen IVIS Spectrum) was evaluated at day 7. The individual tumor measurements and mean±SEM for each treatment group were calculated. Statistical significance was determined by the unpaired non-parametric Mann-Whitney U-test.

[6] = test system: ID8 cells; experiment: Ovarian orthotopic syngeneic tumor model ID8 in mice; assay type: in vivo; conditions: 200 μg/mouse and above twice weekly, FIG. 8C
Method: The efficacy of r5D8 was evaluated in two other syngeneic tumor models.
ID8 cells were cultured in Dulbecco's Modified Eagle Medium (DMEM) (Gibco, Invitrogen), supplemented with 10% Fetal Bovine Serum (FBS) (Gibco, Invitrogen), 40 U/mL Penicillin and 40 μg/mL Streptomycin (PenStrep) (Gibco, Invitrogen) and 0.25 μg/mL Plasmocin (Invivogen).
The ID8 cells were harvested, washed in PBS, centrifuged at 400 g for 5 min and resuspended in PBS. Cells were kept on ice to maintain optimal viability and 200 μL of the cell suspension was injected intraperitoneally with a 27G needle. The final cell number implanted into mice was 5×10^6.
Mice were treated twice weekly with h5D8 administered ip at different doses as indicated. Body weights were measured 2 times/week and tumor progression was monitored by measuring abdominal girth using a caliper (Fisher Scientific).

[7] = test system: CT26 tumors; experiment: Subcutaneous colon CT26 syngeneic tumor model in mice; assay type: in vivo, mouse; conditions: FIG. 10E
Method: CT26 cells were cultured in Roswell Park Memorial Institute medium (RPMI [Gibco, Invitrogen]), supplemented with 10% Fetal Bovine Serum (FBS), 40 U/mL penicillin and 40 μg/mL streptomycin (PenStrep) and 0.25 μg/mL Plasmocin.
CT26 cells (8×10^5)were trypsinized, rinsed with PBS, centrifuged at 400 g for 5 minutes and resuspended in 100 μL PBS. Cells were kept on ice to avoid cell death. The CT26 cells were administered to mice via subcutaneous injection using a 27G needle.
300 μg r5D8, or vehicle control, was administered to the mice via intraperitoneal injection (IP) twice weekly from day 3 post CT26 cell implant.
Body weight and tumor volumes were measured three times per week. Tumor volume was measured using a caliper (Fisher Scientific).

[8] = test system: CCL22 and CD206 (MRC1) expression in patient samples; experiment: Human organotypic tissue slice culture model, M2 macrophage markers; assay type: cell-based; conditions: three patient samples, FIG. 10B

Compound: N.N.[Cl][Pt][Cl] [Cisplatin, cis-diamminedichloridoplatinum(II)]
- Tumor Volumes at Endpoint (Day 21) [1]: 328.5 mm^3 and 1279.7 mm^3 and 689.4 mm^3 and 512.3 mm^3 and 193.9 mm^3 and 997.5 mm^3 and 257.9 mm^3 and 924.4 mm^3 and 744.2 mm^3 and 1313.6 mm^3 and 676.0 mm^3 and 953.8 mm^3

Compound: COc1cccc2c1C(=O)c1c(O)c3c(c(O)c1C2=O)C[C@@](O)(C(=O)CO)C[C@@H]3O[C@H]1C[C@H](N)[C@H](O)[C@H](C)O1 [Doxorubicin]
- Tumor Volumes at Endpoint (Day 21) [1]: 408.7 mm^3 and 1207.4 mm^3 and 94.2 mm^3 and 109.1 mm^3 and 294.9 mm^3 and 780.2 mm^3 and 351.2 mm^3 and 735.2 mm^3 and 48.9 mm^3 and 463.9 mm^3 and 588.8 mm^3 and 230.3 mm^3

Compound: CC(=O)O[C@H]1C(=O)[C@@]2(C)[C@H]([C@H](OC(=O)c3ccccc3)[C@]3(O)C[C@H](OC(=O)[C@H](O)[C@@H](NC(=O)c4ccccc4)c4ccccc4)C(C)=C1C3(C)C)[C@]1(OC(C)=O)CO[C@@H]1C[C@@H]2O [Paclitaxel]
- Tumor Volumes at Endpoint (Day 21) [1]: 651.8 mm^3 and 214.0 mm^3 and 461.5 mm^3 and 698.3 mm^3 and 457.7 mm^3 and 256.2 mm^3 and 592.2 mm^3 and 435.9 mm^3 and 762.1 mm^3 and 1236.2 mm^3 and 112.9 mm^3

Compound: h5D8: humanized (CDR grafted) version of rat anti-LIF antibody 5D8, H2 heavy and L2 light chain; VH SEQ ID NO: 42, VL SEQ ID NO: 46
- Inhibition of LIF-induced STAT3 phosphorylation (FIG. 1, in words) [2]: high
- inhibition of STAT3 phosphorylation (Tyr 705) versus parental antibody [3]: increased inhibition
- tumor growth by bioluminescence [4]: promote tumor regression
- tumor growth by bioluminescence ([4]; listed as humanized 5D8): reduced tumor growth
- tumor size by bioluminescence on day 7 [5]: statistically significant reduction in tumor
- tumor volume / tumor growth [6]: reduced tumor volume; also recorded: significant reduction in tumor growth
- inflammatory phenotype of tumor associated macrophages (TAMs) ([7]; 15 mg/kg, 2 QW, day 25 (endpoint)): polarized towards the M1 pro-inflammatory phenotype
- macrophages with an M1 phenotype (CD206 negative/MHCII positive fraction) ([7]; syngeneic CT26 tumor model): increased
- macrophages with an M2 phenotype (CD206 positive/MHCII negative fraction) ([7]; syngeneic CT26 tumor model): decreased
- CCL22 and CD206 (MRC1) expression [8]: significant decrease
- Tumor Volumes at Endpoint (Day 21) [1]: 656.8 mm^3 and 1354.4 mm^3 and 1190.7 mm^3 and 1109.1 mm^3 and 906.6 mm^3 and 640.3 mm^3 and 0.0 mm^3 and 956.9 mm^3 and 318.7 mm^3 and 253.6 mm^3 and 1408.5 mm^3 and 508.3 mm^3
